Measured values taken from patent US8497276B2, “Substituted indolo-piperidine compounds” (ArQule, Inc., priority 2009, dated 2013).

Columns and labels:
Tec kinase = target: T1, Tec kinase (Homo sapiens, UniProt P42680); assay: Tec Kinase Activity Assay; format: biochemical; conditions: 75 μM ATP, Pyk-2 substrate; compound concentration not given
T1 sequence (P42680 1-631): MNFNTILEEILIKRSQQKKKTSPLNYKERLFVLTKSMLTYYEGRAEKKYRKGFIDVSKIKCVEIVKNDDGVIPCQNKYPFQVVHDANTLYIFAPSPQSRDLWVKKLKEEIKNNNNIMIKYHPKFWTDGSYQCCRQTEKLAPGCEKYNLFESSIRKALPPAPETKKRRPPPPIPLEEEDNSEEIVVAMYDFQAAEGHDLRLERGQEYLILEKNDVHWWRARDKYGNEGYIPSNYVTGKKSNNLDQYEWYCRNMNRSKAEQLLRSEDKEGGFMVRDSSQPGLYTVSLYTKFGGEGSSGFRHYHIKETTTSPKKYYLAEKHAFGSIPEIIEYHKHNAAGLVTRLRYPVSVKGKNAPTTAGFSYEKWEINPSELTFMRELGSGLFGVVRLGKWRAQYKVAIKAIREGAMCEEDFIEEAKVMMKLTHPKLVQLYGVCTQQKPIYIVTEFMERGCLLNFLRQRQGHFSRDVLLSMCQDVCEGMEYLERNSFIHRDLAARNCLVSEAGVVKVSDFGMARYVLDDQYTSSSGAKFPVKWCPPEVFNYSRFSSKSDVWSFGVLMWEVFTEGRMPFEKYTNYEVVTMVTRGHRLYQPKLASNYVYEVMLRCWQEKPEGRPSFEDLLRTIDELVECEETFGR
How it was run: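 TEC enzyme was preincubated 30 min with compound in buffer containing 75 μM ATP, 10 mM MgCl2, 2 mM DTT and 50 mM Tris-HCl. Pyk-2 substrate was then added for 2 h at room temperature. Phosphorylated product was captured on streptavidin plates and detected by anti-phosphotyrosine ELISA with an alkaline phosphatase/Attophos fluorescent read-out.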

DLD-1 = assay: MTS Assay (cell growth inhibition), DLD-1; format: cell-based; conditions: DLD-1 cells, 72 hours with test compound; concentration not given
How it was run: (§1)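 First, seed 3000 cells per well in low-serum (1% FBS) DMEM and culture 18 h. Next, add compounds prepared at 300× in DMSO and diluted 1:40 in DMEM; incubate 72 h. Finally, add MTS/PMS for 4 h and measure absorbance at 492 nm.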

Kato III = assay: MTS Assay (cell growth inhibition), Kato III; format: cell-based; conditions: Kato III cells, 72 hours with test compound; concentration not given
How it was run: as §1

MDA-MB 231 = assay: MTS Assay (cell growth inhibition), MDA-MB 231; format: cell-based; conditions: MDA-MB 231 cells, 72 hours with test compound; concentration not given
How it was run: as §1

NCI-H1299 = assay: MTS Assay (cell growth inhibition), NCI-H1299; format: cell-based; conditions: NCI-H1299 cells, 72 hours with test compound; concentration not given
How it was run: as §1

PACA-2 = assay: MTS Assay (cell growth inhibition), PACA-2; format: cell-based; conditions: PACA-2 cells, 72 hours with test compound; concentration not given
How it was run: as §1

PC-3 = assay: MTS Assay (cell growth inhibition), PC-3; format: cell-based; conditions: PC-3 cells, 72 hours with test compound; concentration not given
How it was run: as §1

`COc1ccc(C2c3[nH]c4ccccc4c3CCN2c2ncnc3[nH]ncc23)cc1` (stereo not drawn) [Compound 31, 1-(4-methoxyphenyl)-2-(1H-pyrazolo[3,4-d]pyrimidin-4-yl)-2,3,4,9-tetrahydro-1H-beta-carboline] was tested, and the “Biochemical IC50 (% inhibition) Tec” value (Tec kinase) was “B (B = 50-79% inhibition)”, the “MTS cell kill data (% inhibition) DLD-1” value (DLD-1) was “B (B = 50-79% inhibition)” and the “MTS cell kill data (% inhibition) Kato III” value (Kato III) was “B (B = 50-79% inhibition)”. For the same compound, the “MTS cell kill data (% inhibition) MDA-MB 231” value (MDA-MB 231) was “B (B = 50-79% inhibition)”, the “MTS cell kill data (% inhibition) NCI-H1299” value (NCI-H1299) was “B (B = 50-79% inhibition)” and the “MTS cell kill data (% inhibition) PACA-2” value (PACA-2) was “B (B = 50-79% inhibition)”. For the same compound, the “MTS cell kill data (% inhibition) PC-3” value (PC-3) was “C (C = <50% inhibition)”.
